Test results reported in ChEMBL document CHEMBL1134487, “Design, synthesis, and biological evaluation of analogues of the antitumor agent, 2-(4-[(7-chloro-2-quinoxalinyl)oxy]phenoxy)propionic acid (XK469)” (2001).

Experiments:
[1] = system: Mus musculus; test: Cytotoxicity against sc transplanted Squam-lung-LC12 tumors of mouse origin, activity expressed as cures at the dose of 400 mg/kg, iv; 5/5 cures; format: functional
[2] = system: Mus musculus; test: Cytotoxicity against sc transplanted Mam-16/C/Adr tumors of mouse origin, activity expressed as T/C(%) at the dose of 400 mg/kg, iv; format: functional
[3] = system: Mus musculus; test: Cytotoxicity against iv transplanted AML1498 tumors of mouse origin, activity expressed as %body wt. loss at the dose of 165 mg/kg, iv; format: functional
[4] = system: Mus musculus; test: In vivo activity tested against C3H mice bearing panc-03 murine tumor measured as% treated/control calculated at 328 mg/kg (po); format: functional
[5] = system: Mus musculus; test: Cytotoxicity against sc transplanted B-16 melanoma tumors of mouse origin, activity expressed as %body wt. loss at the dose of 300 mg/kg, iv; format: functional
[6] = system: Mus musculus; test: In vivo activity tested against C3H mice bearing panc-03 murine tumor measured as body weight loss at 328 mg/kg (po); format: functional
[7] = system: Mus musculus; test: Cytotoxicity against sc transplanted Mam-17/Adr tumors of mouse origin, activity expressed as log10 Kill at the dose of 620 mg/kg, iv; format: functional, organism-based; parameters: dose 620 mg/kg
[8] = system: Mus musculus; test: Cytotoxicity against sc transplanted Panc-02 tumors of mouse origin, activity expressed as T/C(%) at the dose of 600 mg/kg, iv; format: functional
[9] = system: Mus musculus; test: Cytotoxicity against sc transplanted Squam-lung-LC12 tumors of mouse origin, activity expressed as log kill at the dose of 400 mg/kg, iv; All cures; format: functional, organism-based; parameters: dose 400 mg/kg
[10] = system: Mus musculus; test: Cytotoxicity against sc transplanted colon-26 tumors of mouse origin, activity expressed as log10 Kill at the dose of 300 mg/kg, iv; format: functional, organism-based; parameters: dose 300 mg/kg
[11] = system: Mus musculus; test: Cytotoxicity against sc transplanted Mam-16/C/Adr tumors of mouse origin, activity expressed as […] at the dose of 400 mg/kg, iv; 0/5 cures; format: functional
[12] = system: Mus musculus; test: Cytotoxicity against sc transplanted Panc-03 tumors of mouse origin, activity expressed as cures at the dose of 328 mg/kg, po; 4/6 cures; format: functional
[13] = system: Mus musculus; test: Cytotoxicity against sc transplanted B-16 melanoma tumors of mouse origin, activity expressed as cures at the dose of 300 mg/kg, iv; 0/5 cures; format: functional
[14] = system: Mus musculus; test: Cytotoxicity against sc transplanted Panc-02 tumors of mouse origin, activity expressed as %body wt. loss at the dose of 600 mg/kg, iv; format: functional
[15] = system: Mus musculus; test: Cytotoxicity against sc transplanted Mam-16/C tumors of mouse origin, activity expressed as log kill at the dose of 525 mg/kg, iv; format: functional, organism-based; parameters: dose 525 mg/kg
[16] = system: Mus musculus; test: Cytotoxicity against sc transplanted Mam-17/0 tumors of mouse origin, activity expressed as log10 Kill at the dose of 620 mg/kg, iv; format: functional, organism-based; parameters: dose 620 mg/kg
[17] = system: Mus musculus; test: Cytotoxicity against sc transplanted Mam-17/Adr tumors of mouse origin, activity expressed as T/C(%) at the dose of 620 mg/kg, iv; format: functional
[18] = system: Mus musculus; test: In vivo activity tested against C3H mice bearing panc-03 murine tumor measured as activity rating at 328 mg/kg (po); format: functional
[19] = system: Mus musculus; test: Cytotoxicity against sc transplanted Mam-16/C tumors of mouse origin, activity expressed as %T/C at the dose of 525 mg/kg, iv; format: functional
[20] = system: Mus musculus; test: Cytotoxicity against sc transplanted L1210 tumors of mouse origin, activity expressed as log10 Kill at the dose of 332 mg/kg, iv; format: functional, organism-based; parameters: dose 332 mg/kg
[21] = system: Mus musculus; test: Cytotoxicity against iv transplanted AML1498 tumors of mouse origin, activity expressed as %ILS at the dose of 165 mg/kg, iv; format: functional
[22] = system: Mus musculus; test: Cytotoxicity against sc transplanted colon-38 tumors of mouse origin, activity expressed as %body wt lose at the dose of 546 mg/kg, iv; format: functional
[23] = system: Mus musculus; test: Cytotoxicity against sc transplanted Mam-16/C/Taxol tumors of mouse origin, activity expressed as %log kill at the dose of 480 mg/kg, iv; format: functional, organism-based; parameters: dose 480 mg/kg
[24] = system: Mus musculus; test: Cytotoxicity against sc transplanted colon-38 tumors of mouse origin, activity expressed as cures at the dose of 546 mg/kg, iv; 3/5 cures; format: functional
[25] = system: Mus musculus; test: Cytotoxicity against transplanted Panc-02 tumors of mouse origin, activity expressed as cures at the dose of 600 mg/kg, iv; 0/6 cures; format: functional
[26] = system: Mus musculus; test: Cytotoxicity against sc transplanted Mam-17/Adr tumors of mouse origin, activity expressed as cures at the dose of 620 mg/kg, iv; 0/5 cures; format: functional
[27] = system: Mus musculus; test: Cytotoxicity against sc transplanted colon-51 tumors of mouse origin, activity expressed as cures at the dose of 980 mg/kg, po; 1/5 cures; format: functional
[28] = system: Mus musculus; test: Cytotoxicity against iv transplanted L1210 tumors of mouse origin, activity expressed as %body wt. loss at the dose of 300 mg/kg, iv; format: functional
[29] = system: Mus musculus; test: Cytotoxicity against iv transplanted L1210 tumors of mouse origin, activity expressed as %ILS at the dose of 300 mg/kg, iv; format: functional

Structure (SMILES): CC(Oc1ccc(Oc2cnc3ccc(Cl)cc3n2)cc1)C(=O)O (centres undefined)
- Cures [1]: 5
- T/C [2]: 0%
- Body weight loss [3]: -7%
- T/C [4]: 0%
- Body weight loss [5]: -11%
- Body weight loss [6]: -4%
- Log kill [7]: 3.9
- T/C [8]: 9%
- Log kill [9]: All cures
- Log kill [10]: 1.3
- Cures [11]: 0
- Cures [12]: 4
- Cures [13]: 0
- Body weight loss [14]: -3%
- Log kill [15]: 5.2
- Log kill [16]: 3.4
- T/C [17]: 2%
- Activity rating [18]: >2.8
- T/C [19]: 0%
- Log kill [20]: 0.8
- ILS at 165 mg/kg [21]: 30%
- Body weight loss [22]: -3.5%
- Log kill [23]: 2.7
- Cures [24]: 3
- Cures [25]: 0
- Cures [26]: 0
- Cures [27]: 1
- Body weight loss [28]: -2%
- ILS at 300 mg/kg [29]: 160%
